Measured values published in US20110319362A1, “STAT3 LIGANDS AND THERAPEUTIC USES THEREOF” (priority 2008, published 2011).
pIC50: −log10 of the molar value. Where two headings read alike, the source gives them in different places.

How the values were obtained:
[1] = target: T1, STAT3 protein (Homo sapiens, UniProt P40763); test: In vitro competitive STAT3 binding assay (fluorescence polarization)
T1 construct: human STAT3 protein (residues 122-722) fused to His-tag; His-tag
Description: To quantitatively determine the binding affinities of STAT3 inhibitors to STAT3 protein, a sensitive and quantitative in vitro binding assay was developed based upon fluorescence polarization (FP) method. For this FP assay, 5-carboxyfluorescein (5-Fam) was coupled to a phosphopeptide (phospho-Tyr-Leu-Pro-Gln-Thr-Val-amide) with two beta-alanine and one glycine residues as the spacer between 5-Fam and the phosphopeptide to obtain 5-Fam-beta-Ala-beta-Ala-Gly-phospho-Tyr-Leu-Pro-Gln-Thr-Val-amide as the fluorescently tagged tracer, which was named as STT2 peptide. […] The recombinant human STAT3 protein (residues 122-722) fused to His-tag was stable and soluble.
Competitive binding experiments were carried out using 150 nM of STAT3 protein and 5 nM of STT2 peptide with different concentrations of a tested STAT3 inhibitor. For each experiment, two controls were included. One control contained STAT3 protein and STT2 peptide, and the second control contained STT2 peptide only. The polarization values were measured after 2-3 hours of incubation using an ULTRA READER (Tecan U.S. Inc., Research Triangle Park, N.C.). IC50 values, the inhibitor concentration at which 50% of the fluorescently tagged STT2 peptide is displaced by STAT3 inhibitors, was determined from a plot using nonlinear least-squares analysis using GRAPHPAD PRISM software (GraphPad Software, Inc., San Diego, Calif.). […]

[2] = test system: MDA-MB-231 cancer cell line; test: Cell growth assay (WST-8); assay type: cell-based; conditions: Homo sapiens, MDA-MB-231, 96 h; WST-8, 4 days; read-out: Inhibition of cell growth IC50, MDA-MB-231 cancer cell line
Method: (§1) The effect of STAT3 compounds on cell growth was evaluated by a WST-8 [2-(2-methoxy-4-nitrophenyl)-3-(4-nitrophenyl)-5-(2,4-disulfophenyl)-2H-tetrazolium, monosodium salt assay (Dojindo Molecular Technologies, Inc). Cells (3000-4000 cells in each well) were cultured in 96-well tissue culture plates in medium (200 μL) containing various concentrations of STAT3 compounds for 4 days. At the end of incubation, WST-8 dye (20 μL) was added to each well and incubated for an additional 1-3 h, and then the absorbance was measured in a microplate reader (Molecular Devices) at 450 nm. Cell growth inhibition was evaluated as the ratio of the absorbance of the sample to that of the control.

[3] = test system: MDA-MB-468 cancer cell line; test: Cell growth assay (WST-8); assay type: cell-based; conditions: Homo sapiens, MDA-MB-468, 96 h; WST-8, 4 days; read-out: Inhibition of cell growth IC50, MDA-MB-468 cancer cell line
Method: as §1

[4] = FP competitive binding, fluorescently tagged STT2 peptide tracer, read-out: Binding affinities to STAT3 IC50

T1 sequence (P40763 122-722): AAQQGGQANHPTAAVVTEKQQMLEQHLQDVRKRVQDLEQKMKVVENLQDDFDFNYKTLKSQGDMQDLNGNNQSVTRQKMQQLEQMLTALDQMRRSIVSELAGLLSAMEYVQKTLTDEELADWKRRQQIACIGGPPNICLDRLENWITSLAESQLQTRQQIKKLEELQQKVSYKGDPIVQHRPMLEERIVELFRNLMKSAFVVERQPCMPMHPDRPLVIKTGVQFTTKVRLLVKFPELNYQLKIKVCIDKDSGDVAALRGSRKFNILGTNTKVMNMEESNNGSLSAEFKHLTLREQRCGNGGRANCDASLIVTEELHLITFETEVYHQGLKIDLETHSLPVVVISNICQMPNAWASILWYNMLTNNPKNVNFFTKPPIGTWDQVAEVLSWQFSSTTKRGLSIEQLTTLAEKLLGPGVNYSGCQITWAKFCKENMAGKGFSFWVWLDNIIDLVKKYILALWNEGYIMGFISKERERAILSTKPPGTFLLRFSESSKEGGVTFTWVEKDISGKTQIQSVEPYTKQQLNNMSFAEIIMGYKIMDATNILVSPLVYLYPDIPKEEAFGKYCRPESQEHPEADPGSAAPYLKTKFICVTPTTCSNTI

Compound | pIC50 [1, 4] | pIC50 [2] | pIC50 [3] | pIC50 [1]
CCOC(=O)C(Oc1ccc(C[C@@H](C(=O)N[C@H]2CCCCC3CC[C@@H](C(=O)N[C@@H](CCCNC(C)=O)C(=O)NCc4ccccc4)N3C2=O)N(C)C)cc1)C(=O)OCC (stereo partly drawn) | < 5.00 | < 4.00 | < 4.00 | –
NC(=O)CC[C@H](NC(=O)[C@@H]1CCC2CCCC[C@H](NC(=O)/C=C/c3ccc(OP(=O)(O)O)cc3)C(=O)N21)C(=O)NCc1ccccc1 (stereo partly drawn) [Example 56] | – | < 4.00 | < 4.00 | > 6.00
CN[C@@H](Cc1ccc(OP(=O)(O)O)cc1)C(=O)N[C@H]1CCCCC2CC[C@@H](C(=O)N[C@@H](Cc3c[nH]cn3)C(=O)NCc3ccccc3)N2C1=O (stereo partly drawn) | > 4.52 | < 4.30 | < 4.00 | –
CCCCCCCCCCCCCCCCNC(=O)[C@H](CCC(N)=O)NC(=O)[C@@H]1CC[C@@H]2CCCC[C@H](NC(=O)[C@H](Cc3ccc(OP(=O)(O)O)cc3)NC(=O)CCN3CCOCC3)C(=O)N21 | – | > 4.40 | > 4.40 | > 5.30
CCCCCCCCCCCCCCCC(=O)N[C@@H](Cc1ccc(OP(=O)(O)O)cc1)C(=O)NC1CCCC[C@H]2CC[C@@H](C(=O)N[C@@H](CCC(N)=O)C(=O)NCc3ccccc3)N2C1=O (stereo partly drawn) [Example 37] | – | > 4.30 | > 4.30 | > 5.00
CN(C)[C@@H](Cc1ccc(OCP(=O)(O)O)cc1)C(=O)NC1CCCC[C@H]2CC[C@@H](C(=O)N[C@@H](Cc3c[nH]cn3)C(=O)NCc3ccccc3)N2C1=O (stereo in doubt) [Example 33] | < 4.00 | < 4.00 | < 4.00 | –
COP(=O)(OC)Oc1ccc(C[C@H](N)C(=O)N[C@H]2CCCCC3CC[C@@H](C(=O)N[C@@H](C)C(=O)NCc4ccccc4)N3C2=O)cc1 (stereo partly drawn) | – | < 4.30 | < 4.00 | < 4.00
CC[C@H](NC(=O)[C@@H]1CCC2CCCC[C@H](NC(=O)[C@H](Cc3ccc(OP(=O)(O)O)cc3)NC(=O)OCc3ccccc3)C(=O)N21)C(=O)NCc1ccccc1 (stereo partly drawn) | – | < 4.52 | < 4.52 | < 5.00
CC(=O)NCCC[C@H](NC(=O)[C@@H]1CCC2CCCC[C@H](NC(=O)[C@H](Cc3ccc(OC(C(=O)O)C(=O)O)cc3)N(C)C)C(=O)N21)C(=O)NCc1ccccc1 (stereo partly drawn) | < 5.00 | < 4.00 | < 4.00 | –
CNCCCNC(=O)[C@@H]1CC[C@@H]2CCCC[C@H](NC(=O)[C@H](Cc3ccc(OP(=O)(O)O)cc3)NC(=O)OCc3ccccc3)C(=O)N21 [Example 19] | > 4.00 | < 4.00 | < 4.00 | –
NC(=O)CC[C@H](NC(=O)[C@@H]1CC[C@@H]2CCCC[C@H](NC(=O)[C@H](Cc3ccc(OP(=O)(O)O)cc3)NC(=O)CCc3ccccc3)C(=O)N21)C(=O)NCc1ccccc1 [Example 2] | – | < 4.70 | < 4.00 | > 6.00
CCCCCCCCCCCCCCCC(=O)N[C@@H](Cc1ccc(OP(=O)(O)O)cc1)C(=O)NC1CCCC[C@H]2CC[C@@H](C(=O)N[C@@H](Cc3c[nH]cn3)C(=O)NCc3ccccc3)N2C1=O (stereo partly drawn) [Example 38] | – | > 4.30 | > 4.22 | > 4.00
N=C(N)NCCC[C@H](NC(=O)[C@@H]1CC[C@@H]2CCCC[C@H](NC(=O)[C@@H](N)Cc3ccc(OP(=O)(O)O)cc3)C(=O)N21)C(=O)NCc1ccccc1 [Example 12] | < 5.30 | > 4.30 | < 4.00 | –
CCCCCCCCCCCCCCCCN1CCN(CCC(=O)N[C@@H](Cc2ccc(OP(=O)(O)O)cc2)C(=O)N[C@H]2CCCCC3CC[C@@H](C(=O)NCCc4nnc[nH]4)N3C2=O)CC1 (stereo partly drawn) | > 5.30 | > 4.70 | > 4.70 | –
NCCOCCOCCOCCOCCC(=O)N[C@@H](Cc1ccc(OP(=O)(O)O)cc1)C(=O)N[C@H]1CCCCC2CC[C@@H](C(=O)N[C@@H](CCC(N)=O)C(=O)NCc3ccccc3)N2C1=O (stereo partly drawn) | > 5.30 | < 4.00 | < 4.00 | –
CCCCCCCCCCCCCCCCN1CCN(CCC(=O)N[C@@H](Cc2ccc(OP(=O)(O)O)cc2)C(=O)N[C@H]2CCCCC3CC[C@@H](C(=O)N[C@H](CO)Cc4c[nH]cn4)N3C2=O)CC1 (stereo partly drawn) | > 5.30 | > 4.70 | > 4.70 | –

Compound | pIC50 [1, 4] | pIC50 [2] | pIC50 [3] | pIC50 [1]
CCCCCCCCCCCCNC(=O)[C@H](CCC(N)=O)NC(=O)[C@@H]1CCC2CCCC[C@H](NC(=O)[C@H](Cc3ccc(OP(=O)(O)O)cc3)NC)C(=O)N21 (stereo partly drawn) | > 5.30 | > 4.52 | > 4.70 | –
NC(=O)CC[C@H](NC(=O)[C@@H]1CCC2CCCC[C@H](NC(=O)CCc3ccc(OP(=O)(O)O)cc3)C(=O)N21)C(=O)NCc1ccccc1 (stereo partly drawn) | – | < 4.00 | < 4.00 | > 5.30
CC(=O)N[C@@H](Cc1ccc(O)cc1)C(=O)N[C@H]1CCCC[C@H]2CC[C@@H](C(=O)N[C@@H](CCC(N)=O)C(=O)NCc3ccccc3)N2C1=O [Example 6] | < 4.00 | < 4.00 | < 4.00 | –
CCOC(=O)C(Oc1ccc(C[C@@H](C(=O)N[C@H]2CCCCC3CC[C@@H](C(=O)N[C@@H](Cc4c[nH]cn4)C(=O)NCc4ccccc4)N3C2=O)N(C)C)cc1)C(=O)OCC (stereo partly drawn) | < 5.00 | < 4.00 | < 4.00 | –
NC(=O)CC[C@H](NC(=O)[C@@H]1CCC2CCCC[C@H](NC(=O)c3cc4cc(OP(=O)(O)O)ccc4[nH]3)C(=O)N21)C(=O)NCc1ccccc1 (stereo partly drawn) [Example 57] | – | < 4.00 | < 4.00 | > 6.00
N=C(N)NCCC[C@H](NC(=O)[C@@H]1CC[C@@H]2CCCC[C@H](NC(=O)[C@H](Cc3ccc(OP(=O)(O)O)cc3)NC(=O)OCc3ccccc3)C(=O)N21)C(=O)NCc1ccccc1 [Example 11] | – | < 4.30 | < 4.00 | < 5.30
CN(C)[C@@H](Cc1ccc(OP(=O)(O)O)cc1)C(=O)N[C@H]1CCCCC2CC[C@@H](C(=O)N[C@@H](CCC(N)=O)C(=O)NCc3ccccc3)N2C1=O (stereo in doubt) [Example 36] | > 5.30 | < 4.00 | < 4.00 | –
CCCCCCCCCCCCCCCCN1CCN(CCC(=O)N[C@@H](Cc2ccc(OP(=O)(O)O)cc2)C(=O)N[C@H]2CCCCC3CC[C@@H](C(=O)NCCCC(O)CO)N3C2=O)CC1 (stereo partly drawn) | > 5.00 | > 4.70 | > 4.70 | –
CN(C)CCCCNC(=O)[C@@H]1CCC2CCCC[C@H](NC(=O)[C@H](Cc3ccc(OP(=O)(O)O)cc3)NC(=O)OCc3ccccc3)C(=O)N21 (stereo partly drawn) | > 4.52 | < 4.00 | < 4.00 | –
CCCCCCCCCCCCCCCCN1CCN(CCC(=O)N[C@@H](Cc2ccc(OP(=O)(O)O)cc2)C(=O)N[C@H]2CCCCC3CC[C@@H](C(=O)N[C@@H](CCC(N)=O)C(=O)NCc4ccccc4)N3C2=O)CC1 (stereo partly drawn) | > 6.00 | > 5.00 | > 5.00 | –
NC(=O)CC[C@H](NC(=O)[C@@H]1CC[C@@H]2CCCC[C@H](NC(=O)CCc3ccc(CP(=O)(O)O)cc3)C(=O)N21)C(=O)NCc1ccccc1 [Example 25] | < 4.00 | < 4.00 | < 4.00 | –
CC(=O)N1CCC2CC[C@@H](C(=O)N[C@@H](CCC(N)=O)C(=O)NCc3ccccc3)N2C(=O)[C@@H](NC(=O)[C@@H](N)Cc2ccc(OP(=O)(O)O)cc2)C1 (stereo partly drawn) | > 5.30 | < 4.30 | < 4.00 | –
CN(C)[C@@H](Cc1ccc(OP(=O)(O)O)cc1)C(=O)N[C@H]1CCCCC2CC[C@@H](C(=O)N[C@@H](CNC(=N)N)C(=O)NCc3ccccc3)N2C1=O (stereo partly drawn) | > 4.00 | < 4.30 | < 4.00 | –
CC(=O)N[C@@H](Cc1ccc(OCP(=O)(O)O)cc1)C(=O)NC1CCCC[C@H]2CC[C@@H](C(=O)N[C@@H](Cc3c[nH]cn3)C(=O)NCc3ccccc3)N2C1=O (stereo in doubt) [Example 32] | – | < 4.00 | < 4.00 | > 4.52
CC(=O)N[C@@H](Cc1ccc(OP(=O)(O)O)cc1)C(=O)N[C@H]1CCCC[C@H]2CC[C@@H](C(=O)N[C@@H](CCC(N)=O)C(=O)NCc3ccccc3)N2C1=O [Example 1] | > 6.00 | < 4.70 | < 4.00 | –
O=C(CC[C@H](NC(=O)[C@@H]1CCC2CCCC[C@H](NC(=O)[C@H](Cc3ccc(OP(=O)(O)O)cc3)NC(=O)OCc3ccccc3)C(=O)N21)C(=O)NCc1ccccc1)NC(c1ccccc1)(c1ccccc1)c1ccccc1 (stereo partly drawn) | – | > 4.30 | > 4.30 | > 4.70
